Where “and” joins values, the source holds several entries; their conditions need not be identical. Equal entries are not always repeated.
Conditions: Liquid, Vibrating tube method

CCCC[n+]1ccn(C)c1.O=S(=O)([N-]S(=O)(=O)C(F)(F)F)C(F)(F)F
Conditions | mass density
273.15 K, 100 kPa | 1460.67 kg/m3
278.15 K, 100 kPa | 1455.84 kg/m3
283.15 K, 100 kPa | 1451.04 kg/m3
288.15 K, 100 kPa | 1446.23 kg/m3
288.15 K, 10320 kPa | 1453.8 kg/m3
288.15 K, 15130 kPa | 1457.1 kg/m3
288.15 K, 20090 kPa | 1460.4 kg/m3
288.15 K, 24820 kPa | 1463.6 kg/m3
288.15 K, 25120 kPa | 1463.3 kg/m3
288.15 K, 30620 kPa | 1467.3 kg/m3
288.15 K, 39770 kPa | 1473 kg/m3
288.15 K, 49640 kPa | 1478.8 kg/m3
288.15 K, 50970 kPa | 1479.2 kg/m3
288.15 K, 76000 kPa | 1493.8 kg/m3
288.15 K, 100500 kPa | 1506 kg/m3
288.15 K, 124500 kPa | 1517.8 kg/m3
288.15 K, 150400 kPa | 1528.9 kg/m3
288.15 K, 151000 kPa | 1529.4 kg/m3
288.15 K, 175100 kPa | 1539.3 kg/m3
288.15 K, 199900 kPa | 1548.8 kg/m3
288.16 K, 99600 kPa | 1506 kg/m3
293.15 K, 100 kPa | 1441.43 kg/m3 and 1441.42 kg/m3
298.15 K, 100 kPa | 1436.64 kg/m3 and 1436.6 kg/m3
298.15 K, 9760 kPa | 1444.2 kg/m3
298.15 K, 15200 kPa | 1448.1 kg/m3
298.15 K, 24770 kPa | 1454.6 kg/m3
298.15 K, 24930 kPa | 1454.4 kg/m3
298.15 K, 39560 kPa | 1464.3 kg/m3
298.15 K, 50280 kPa | 1470.6 kg/m3
298.15 K, 100700 kPa | 1498.7 kg/m3
298.15 K, 124500 kPa | 1510.5 kg/m3
298.15 K, 150300 kPa | 1522.1 kg/m3
298.15 K, 174400 kPa | 1532.5 kg/m3
298.15 K, 200400 kPa | 1543.2 kg/m3 and 1542.9 kg/m3
298.15 K, 249600 kPa | 1561.5 kg/m3
298.16 K, 20120 kPa | 1451.5 kg/m3
298.16 K, 30400 kPa | 1458.4 kg/m3
298.16 K, 50110 kPa | 1470.9 kg/m3
298.16 K, 75200 kPa | 1485.4 kg/m3
298.16 K, 100200 kPa | 1498.6 kg/m3
298.16 K, 150100 kPa | 1522.3 kg/m3
298.16 K, 225500 kPa | 1553 kg/m3
303.15 K, 100 kPa | 1431.86 kg/m3
313.15 K, 100 kPa | 1422.34 kg/m3
323.15 K, 100 kPa | 1412.87 kg/m3 and 1412.85 kg/m3
323.15 K, 15150 kPa | 1424.4 kg/m3
323.15 K, 24310 kPa | 1431.5 kg/m3
323.15 K, 24670 kPa | 1431.2 kg/m3
323.15 K, 30100 kPa | 1435.1 kg/m3
323.15 K, 39780 kPa | 1441.8 kg/m3
323.15 K, 49910 kPa | 1448.4 kg/m3
323.15 K, 50470 kPa | 1449.4 kg/m3
323.15 K, 75400 kPa | 1463.9 kg/m3
323.15 K, 99600 kPa | 1478.1 kg/m3
323.15 K, 100500 kPa | 1478 kg/m3
323.15 K, 124700 kPa | 1490.3 kg/m3
323.15 K, 149600 kPa | 1502.1 kg/m3 and 1502.8 kg/m3
323.15 K, 174600 kPa | 1513 kg/m3
323.15 K, 200000 kPa | 1524.7 kg/m3
323.15 K, 225000 kPa | 1533.7 kg/m3
323.15 K, 251500 kPa | 1543 kg/m3
323.16 K, 10250 kPa | 1420.7 kg/m3
323.16 K, 20180 kPa | 1428.1 kg/m3
323.16 K, 201000 kPa | 1524.3 kg/m3
333.15 K, 100 kPa | 1403.48 kg/m3
343.15 K, 100 kPa | 1394.15 kg/m3
348.15 K, 10050 kPa | 1397.8 kg/m3
348.15 K, 15200 kPa | 1402 kg/m3
348.15 K, 20220 kPa | 1405.9 kg/m3
348.15 K, 24790 kPa | 1410.4 kg/m3
348.15 K, 24830 kPa | 1409.3 kg/m3
348.15 K, 30300 kPa | 1413.4 kg/m3
348.15 K, 39980 kPa | 1420.5 kg/m3
348.15 K, 49890 kPa | 1427.3 kg/m3
348.15 K, 50730 kPa | 1429.7 kg/m3
348.15 K, 75400 kPa | 1443.5 kg/m3
348.15 K, 100300 kPa | 1460.9 kg/m3
348.15 K, 100500 kPa | 1458.5 kg/m3
348.15 K, 125100 kPa | 1471.9 kg/m3
348.15 K, 150000 kPa | 1484.2 kg/m3
348.15 K, 150500 kPa | 1487.2 kg/m3
348.15 K, 174700 kPa | 1495.6 kg/m3
348.15 K, 199200 kPa | 1509.2 kg/m3
348.15 K, 200600 kPa | 1506.6 kg/m3
348.15 K, 225700 kPa | 1517 kg/m3
348.15 K, 250700 kPa | 1526.9 kg/m3
353.15 K, 100 kPa | 1384.88 kg/m3
363.15 K, 100 kPa | 1375.67 kg/m3

CCCCCC[n+]1ccn(C)c1.O=S(=O)([N-]S(=O)(=O)C(F)(F)F)C(F)(F)F
Conditions | mass density
273.15 K, 101.33 kPa | 1395.63 kg/m3 and 1395.14 kg/m3 and 1395.28 kg/m3
278.15 K, 101.33 kPa | 1390.37 kg/m3 and 1390.93 kg/m3
283.15 K, 101.33 kPa | 1385.72 kg/m3 and 1385.89 kg/m3 and 1386.23 kg/m3
288.15 K, 101.33 kPa | 1381.16 kg/m3 and 1381.54 kg/m3
288.15 K, 14950 kPa | 1393.3 kg/m3
288.15 K, 20180 kPa | 1396.8 kg/m3
288.15 K, 25080 kPa | 1400 kg/m3
288.15 K, 30100 kPa | 1403.2 kg/m3
288.15 K, 40120 kPa | 1409.5 kg/m3
288.15 K, 49940 kPa | 1415.3 kg/m3
288.15 K, 75500 kPa | 1429.5 kg/m3
288.15 K, 124700 kPa | 1453.9 kg/m3
288.15 K, 174600 kPa | 1474.9 kg/m3
288.16 K, 100000 kPa | 1442.2 kg/m3
288.16 K, 150500 kPa | 1465 kg/m3
293.15 K, 101.33 kPa | 1376.86 kg/m3 [middle of 4 runs]
298.15 K, 101.33 kPa | 1372.17 kg/m3 [middle of 4 runs]
303.15 K, 101.33 kPa | 1367.48 kg/m3 and 1367.61 kg/m3
313.15 K, 101.33 kPa | 1358.37 kg/m3 and 1358.51 kg/m3 and 1358.44 kg/m3
323.15 K, 101.33 kPa | 1349.3 kg/m3 and 1349.43 kg/m3 and 1349.35 kg/m3
333.15 K, 101.33 kPa | 1340.33 kg/m3 and 1340.27 kg/m3 and 1340.4 kg/m3
343.15 K, 101.33 kPa | 1331.36 kg/m3 and 1331.29 kg/m3 and 1331.38 kg/m3
353.15 K, 101.33 kPa | 1322.46 kg/m3 and 1322.34 kg/m3 and 1322.43 kg/m3
363.15 K, 101.33 kPa | 1313.62 kg/m3 and 1313.44 kg/m3 and 1313.52 kg/m3

— the NIST ThermoML archive (doi:10.1021/je501118w)
